Experimental findings from patent US5854004A, “Process for screening substances capable of modulating a receptor-dependent cellular signal transmission path” (Boehringer Ingleheim GmbH, priority 1991, dated 1998) are described below.

The target in data set [1] is T1, human neurokinin 2-receptor (Homo sapiens, UniProt P21452).
T1 sequence (P21452 1-398): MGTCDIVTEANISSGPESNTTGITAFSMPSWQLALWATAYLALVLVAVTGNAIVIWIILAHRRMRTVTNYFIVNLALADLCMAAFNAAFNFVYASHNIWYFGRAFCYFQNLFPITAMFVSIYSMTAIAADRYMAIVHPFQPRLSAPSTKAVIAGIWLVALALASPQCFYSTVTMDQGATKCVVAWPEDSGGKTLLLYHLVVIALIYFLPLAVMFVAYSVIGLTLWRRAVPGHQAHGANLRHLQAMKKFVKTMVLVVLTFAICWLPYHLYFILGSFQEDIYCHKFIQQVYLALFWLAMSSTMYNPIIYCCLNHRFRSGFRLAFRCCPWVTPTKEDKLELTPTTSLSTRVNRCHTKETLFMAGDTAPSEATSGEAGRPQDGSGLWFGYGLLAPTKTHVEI
Description: Luciferase activity in NK2-test cell line A20/NK2-122. As to the method: (§1) 15-20 days after transfection, individual cell clones were transferred into 96-well microtitre plates and further cultivated. […] Approximately 40,000 cells in each clone were sown, in a procedure repeated 6 times, in 200 μl per well of a light-impervious 96-well microtitre plate coated with tissue culture (Microlite™, Dynatech Laboratories) and incubated overnight at 37° C. Three mixtures were treated with 10 ng TPA/ml and incubated for a further 8 hours. Then the medium was removed and the cells were washed twice with PBS.
This Example illustrates the preparation of a test cell line for the human neurokinin 2 (NK2)-receptor which is coupled to the phospholipase C-signal transduction pathway. This test cell line makes it possible, by measurement of the luciferase activity, to identify substances which modulate the intracellular IP3 /DAG concentrations, depending on the receptor.
(§2) The pretest cell line A20 was transfected, as described under a), by electroporation with the plasmid pAHyg-NK2, which had previously been linearised with BglII. From the day after transfection onwards, the cells were grown in selection medium, as used for the cell line A20 and additionally enriched with 150 μg/ml hygromycin B (Sigma). Individual clones were tested for inducibility of the luciferase activity as described under a).

Data set [2] concerns cell line CHO C6-13. The data set can be described thus: Luciferase expression in CRE-pretest cell line CHO C6-13. To be noted: for change in luciferase expression/activity: 3 hours treatment, FIG. 33. On the procedure: The transfection by electroporation was carried out as follows: after removal of the medium the cells were detached from the surface by means of a trypsin/PBS solution, suspended in medium and pelleted for 5 minutes at 250×g. The cells were washed in HBS (10 mM HEPES pH 7.4, 150 mM NaCl) and pelleted by centrifuging. The cells were suspended in HBS in a density of 1×10^7 cells/ml. 0.8 ml of cell suspension were mixed with 20 μg of DNA of the plasmid pADneo2-C6-BGL linearised with ScaI and transferred into an electroporation dish. […] After the electroporation the cells were diluted in the medium mentioned above, 20,000 cells per 90 mm culture dish was sown and incubated overnight at 37° C.
Two batches of each were treated with 20 μM forskolin and incubated for a further 5 hours at 37° C. Then the medium was removed from all the cells and the cells were washed with PBS.
Cells of the cell line CHO C6-13 were treated for 3 hours with various substances which alter the intracellular concentration of cAMP or IP3 /DAG or simulate a change in concentration, and also treated with receptor-specific agonists which influence the above-mentioned signal transduction mechanisms.

The target of data set [3] is luciferase (Photinus pyralis, UniProt P08659). Description: Effect of reagent component concentration on luciferase measuring signal. It is filed as biochemical. As to the method:
The effect of varying the concentration of ATP, luciferin, MgSO4. 7H2 O, dithiothreitol (DDT), β-mercaptoethanol (BME), sodium tripolyphosphate (NaTPP), Triton X-100 and the pH on the luciferase measuring signal obtained was determined (Table 2). The measurements obtained 3 minutes after the addition of the reagent were used for comparison (given as percentage of the maximum measuring signal obtained).

For data set [4], the target named is human dopamine D1-receptor (Homo sapiens, UniProt P21728). Description: Luciferase activity in dopamine D1-receptor test cell line CHO 13D1-38. As to the method:
The cell line CHO C6-13 characterised above was transfected, as described under a), by electroporation with plasmid pAD-CMV2:D1, which had previously been linearised with FspI.
For the use of test cell lines in an automatic screening system with a high throughput rate it is advantageous to use microtitre plates having 96 wells per plate. For this purpose, 60,000 cells (CHO C6-13 or CHO 13D1-38) were sown in 200 μl medium per well in light-impermeable microtitre plates coated with tissue culture
(Microlite™, Dynatech Labroatories) and incubated overnight at 37° C. Then various chemicals were added to the cells and they were incubated for a certain length of time (usually 3 hours). After removal of the medium the cells were washed with PBS, lysed in 1% Triton X-100 and the luciferase activity was measured in a 96-well luminometer (ML-1000, Dynatech) (FIG. 36).
In order to simulate a screening process in which the test substances are preferably supplied in a uniform solvent, a final concentration of 1% DMSO was used in this experiment.

In data set [5] the test system is cell line A20. The data set can be described thus: Luciferase induction in stable TRE-pretest cell line A20 (A549, pBHluc1.3). To be noted: A20, no receptor DNA. On the procedure: In order to produce a stable (pre-)test cell line for substances which influence the expression of the luciferase gene by direct or receptor-mediated modulation of the IP3 /DAC-signal transduction pathway, A549 cells were simultaneously transfected with the plasmid pBHluc1.3 and the selection plasmid pRSVneo by electroporation as follows: after removal of the medium the cells were detached from the surface by means of a trypsin/PBS solution, suspended in medium and sedimented for 5 minutes at 250×g. […] 0.8 ml of cell suspension were combined with 20 μg of pBHluc1.3 and 2 μg of pRSVneo. Both plasmids had previously been linearised with BamHI.
as §1, §2

The target in data set [6] is human 5HT2-receptor (Homo sapiens, UniProt P28223). Description: cell-based. An excerpt:
The human 5HT2-receptor is another example of a receptor coupled to the phospholipase C-signal transduction pathway. The TRE-cell line A20 is therefore also suitable in this case as a starting cell line for establishing a test cell line in order to discover substances which modulate the activity of the 5HT2-receptor.
The plasmid pAHyg-5HT2, linearised with BglII, was for this purpose transfected into the cell line A20 by electroporation as described under a) and grown in selection medium.
For this purpose the cells were simultaneously treated with a constant amount of serotonin (1 μg) and increasing amounts of antagonist.

Where no end group is shown, it is not given here.

Chain of luciferase (P08659 whole entry): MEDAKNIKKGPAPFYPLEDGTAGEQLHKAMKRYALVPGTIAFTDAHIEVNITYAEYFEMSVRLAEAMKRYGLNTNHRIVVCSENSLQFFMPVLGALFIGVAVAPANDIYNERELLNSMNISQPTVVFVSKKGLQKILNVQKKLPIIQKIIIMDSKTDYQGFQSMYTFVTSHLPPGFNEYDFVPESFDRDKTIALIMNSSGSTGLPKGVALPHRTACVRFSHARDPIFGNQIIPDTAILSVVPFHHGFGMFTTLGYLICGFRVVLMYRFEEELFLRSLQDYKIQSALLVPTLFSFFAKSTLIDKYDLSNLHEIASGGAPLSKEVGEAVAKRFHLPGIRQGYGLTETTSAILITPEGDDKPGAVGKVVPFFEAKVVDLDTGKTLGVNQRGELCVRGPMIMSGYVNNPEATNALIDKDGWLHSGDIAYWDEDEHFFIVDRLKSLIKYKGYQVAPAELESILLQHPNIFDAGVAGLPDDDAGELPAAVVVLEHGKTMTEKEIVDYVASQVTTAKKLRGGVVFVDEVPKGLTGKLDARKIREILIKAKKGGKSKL
Chain of human 5HT2-receptor (P28223 whole entry): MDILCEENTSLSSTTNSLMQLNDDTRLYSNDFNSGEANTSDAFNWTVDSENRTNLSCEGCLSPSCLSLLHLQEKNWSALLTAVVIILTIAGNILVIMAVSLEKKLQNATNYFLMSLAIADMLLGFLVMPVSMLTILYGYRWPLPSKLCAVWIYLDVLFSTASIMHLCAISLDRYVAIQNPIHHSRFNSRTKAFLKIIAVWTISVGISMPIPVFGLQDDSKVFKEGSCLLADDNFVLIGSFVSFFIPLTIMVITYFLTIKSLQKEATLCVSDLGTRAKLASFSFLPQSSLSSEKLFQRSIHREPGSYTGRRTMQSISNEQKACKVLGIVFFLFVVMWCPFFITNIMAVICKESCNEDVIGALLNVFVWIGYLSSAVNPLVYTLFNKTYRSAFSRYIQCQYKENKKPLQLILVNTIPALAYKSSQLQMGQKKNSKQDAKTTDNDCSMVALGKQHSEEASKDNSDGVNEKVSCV
Chain of human dopamine D1-receptor (P21728 whole entry): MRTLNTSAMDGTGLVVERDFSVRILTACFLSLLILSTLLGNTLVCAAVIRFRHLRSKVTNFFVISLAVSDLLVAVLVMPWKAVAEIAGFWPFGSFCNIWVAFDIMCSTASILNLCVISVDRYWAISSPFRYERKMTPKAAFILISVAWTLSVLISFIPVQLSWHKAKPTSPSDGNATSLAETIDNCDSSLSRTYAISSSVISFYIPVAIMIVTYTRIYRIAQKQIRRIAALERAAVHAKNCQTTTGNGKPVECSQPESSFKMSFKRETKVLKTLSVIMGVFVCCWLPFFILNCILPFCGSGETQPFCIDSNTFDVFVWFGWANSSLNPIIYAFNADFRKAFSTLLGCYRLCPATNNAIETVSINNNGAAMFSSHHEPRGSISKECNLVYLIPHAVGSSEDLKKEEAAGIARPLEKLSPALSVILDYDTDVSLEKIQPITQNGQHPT

For `COc1ccccc1CN[C@H]1C2CCN(CC2)[C@H]1C(c1ccccc1)c1ccccc1` (relative stereo) [BIBO 2020, ±cis-3-(2-methoxybenzylamino)-2-benzhydrylquinulidine], in data set [1], the “inhibition of the agonistic effect of neurokinin A” value is on record as “effective at higher concentrations (P7492>BIBO 2020>H-9290)”.

With `CNc1ccc2oc(C[C@H]3O[C@@]4(CC[C@H]3C)O[C@H]([C@H](C)C(=O)c3ccc[nH]3)[C@H](C)C[C@H]4C)nc2c1C(=O)O` [A23187], in data set [2], the “change in luciferase expression/activity” value is “did not bring about any significant change in the luciferase activity”.

Consider `Nc1ncnc2c1ncn2[C@@H]1O[C@H](COP(=O)(O)OP(=O)(O)OP(=O)(O)O)[C@@H](O)[C@H]1O` [ATP, adenosine triphosphate], for which the “% max. signal (luciferase)” value in data set [3] (ATP 0.06 g/l) turned out to be 61%; in data set [3] (ATP 0.13 g/l), 95%; in data set [3] (ATP 0.29 g/l) it was 100%; in data set [3] (ATP 0.65 g/l), 98%; in data set [3] (ATP 1.47 g/l), 83%; in data set [3] (ATP 3.30 g/l), 78%.

Turning to `OCCS` [BME, β-mercaptoethanol], the “max. signal (luciferase)” value in data set [3] (BME 0.59 ml/l) was 80%; in data set [3] (BME 0.88 ml/l), 82%; in data set [3] (BME 1.32 ml/l), 68%; in data set [3] (BME 1.98 ml/l), 84%; in data set [3] (BME 2.96 ml/l) it was 86%; in data set [3] (BME 4.44 ml/l), 100%. Besides, the “max. signal (luciferase)” value turned out to be 94% in data set [3] (BME 6.67 ml/l) and 93% in data set [3] (BME 10.0 ml/l).

With `CC(C)Cn1c(=O)n(C)c(=O)c2[nH]cnc21` [IBMX, isobutylmethylxanthine], the “change in luciferase expression/activity” value in data set [2] is on record as “increased”. Besides, the “shift in the forskolin dosage-activity curve to lower forskolin concentrations” value in data set [2] (with IBMX) is recorded as “one order of magnitude”. Also, the “influence on maximum induction of the luciferase reporter gene” value in data set [2] (with forskolin) was “not significantly influenced”.

For `O=C(O)[C@H]1CSC(c2nc3ccc(O)cc3s2)=N1` [Lucifenn], the “% max. signal (luciferase)” value in data set [3] (luciferin 1.32 mg/l) is reported as 42%; in data set [3] (luciferin 1.98 mg/l), 58%; in data set [3] (luciferin 2.96 mg/l) it was 65%; in data set [3] (luciferin 4.44 mg/l), 75%; in data set [3] (luciferin 6.67 mg/l), 88%; in data set [3] (luciferin 10.0 mg/l), 95%. For the same molecule, the “% max. signal (luciferase)” value in data set [3] (luciferin 15.0 mg/l) came to 100%.

On to `O.O.O.O.O.O.O.O=S(=O)([O-])[O-].[Mg+2]` [MgSO4, magnesium sulphate-heptahydrate], for which the “% max. signal (luciferase)” value worked out at 20% in data set [3] (MgSO4 0.35 g/l); 48% in data set [3] (MgSO4 0.53 g/l); 64% in data set [3] (MgSO4 0.79 g/l); 77% in data set [3] (MgSO4 1.19 g/l); 77% in data set [3] (MgSO4 1.78 g/l); 100% in data set [3] (MgSO4 2.67 g/l). The “% max. signal (luciferase)” value in data set [3] (MgSO4 4.00 g/l) is listed as 100%.

As for `O=P(O)(O)OP(=O)(O)OP(=O)(O)O` [NaTPP, sodium tripolyphosphate], the “% max. signal (luciferase)” value in data set [3] (NaTPP 5.01 mg/l) came out at 54%; in data set [3] (NaTPP 15.8 mg/l) it was 64%; in data set [3] (NaTPP 50.0 mg/l), 82%; in data set [3] (NaTPP 158 mg/l) it was 100%; in data set [3] (NaTPP 500 mg/l) it was 75%.

As for `CC(C)C[C@H]1C(=O)N2CCC[C@H]2[C@]2(O)O[C@](NC(=O)[C@@H]3C=C4c5cccc6[nH]c(Br)c(c56)C[C@H]4N(C)C3)(C(C)C)C(=O)N12` [bromocryptin], in data set [2], the “change in luciferase expression/activity” value is “did not bring about any significant change in the luciferase activity”. Also, the “luciferase induction at the highest concentration (attributed to cell toxicity or low pH)” value in data set [4] (100 μM bromocryptin) is given as “reversal of luciferase induction”. Further, in data set [4] (FIG. 38B), the “activity on luciferase induction” value is given as “dosage-dependent activity”.

For `C[N+](C)(C)CCOC(N)=O` [carbachol], the “change in luciferase expression/activity” value in data set [2] is recorded as “did not bring about any significant change in the luciferase activity”.

As for `CCCC(=O)Nc1ncnc2c1ncn2[C@@H]1O[C@@H]2COP(=O)(O)O[C@H]2[C@H]1OC(=O)CCC` [dibutyryl-cAMP], in data set [2], the “change in luciferase expression/activity” value was “increased”.

On to `NCCc1c[nH]c2ccc(O)cc12` [serotonin], for which the “induction of luciferase activity by receptor agonists in pretest cell line A20” value (“induction of luciferase activity” below) in data set [5] was “could not be induced”. Besides, the “selectivity of dosage-activity curves” value in data set [6] is “selective for serotonin”. In addition, in data set [6] (serotonin 1 μM), the “induction time up to which luciferase activity increases continuously” value worked out at 6 h. In addition, the “change in luciferase expression/activity” value in data set [2] was “did not bring about any significant change in the luciferase activity”.

For the molecule `O=C(CCCN1CCC2(CC1)C(=O)NCN2c1ccccc1)c1ccc(F)cc1` [spiperone], the “inhibition of the agonistic activity of serotonin” value in data set [6] (constant serotonin (1 μg), increasing antagonist, FIG. 32B) is recorded as “able to be inhibited”.

As for “neurokinin A: neurokinin (Sigma), agonist at neurokinin 2-receptor (HKTDSFVGLM-NH2; ends and bridges not checked; UniProt P20366 98-107, looked up)”, the “induction of luciferase activity” value in data set [5] was “could not be induced by any of the three tachykinins”.

Take “neuromedin K (NMK): neurokinin (Sigma), tachykinin”: in data set [5], the “induction of luciferase activity” value was “could not be induced by any of the three tachykinins”. The “relative effectiveness of the neurokinins” value in data set [1] (dosage activity curves, FIG. 29A) is “NKA>neuromedin K (NMK)>substance P (SP)”.

“substance P (SP): neurokinin (Sigma), tachykinin (RPKPQQFFGLM-NH2; ends and bridges not checked; UniProt P20366 58-68, looked up)”: in data set [5], the “induction of luciferase activity” value is given as “could not be induced by any of the three tachykinins”.
